Like-named read-outs stand apart in the source and are kept apart here. Where a SMILES comes first, the peptide text is derived from it. [ ]: non-standard residue; d: D form. The star is where a group is joined. NHPhenethyl = c1ccc(CCN*)cc1; Isobutyryl = CC(C)C(=O)*; Deg = CCC(N)(CC)C(=O)O

For the assay, the target named is WDR5 (Homo sapiens (Human), UniProt P61964). Kind of assay: FP based competitive binding assay to WDR5. To be noted: for Ki: read-out: Ki ± SD; for times less potent than Ac-3mer: ratio vs Ac-3mer; for fold decrease of binding affinity relative to Ac-10mer: ratio vs Ac-10mer. The protocol:
Another aspect of the invention is development of a Fluorescent Polarization (FP) based competitive binding assay. […] Next, the millipolarization (mP) values were measured at different time points in order to determine equilibrium duration and stability.
Accordingly, the optimal protein concentrations for the competitive assay was investigated.
All the FP based experiments were performed in MICROFLUOR® 2 Black, “U” Bottom, 96-well Microtiter Plates (ThermoSci.) and FP was measured as mP units in a microplate reader (Tecan Ultra) with excitation at 485 nm and emission at 530 nm. The Kd of the tracers and the IC50 value of the inhibitors were calculated using GraphPad Prism 4 software.
The binding affinities of the synthetic peptides shown in the study were measured using this competitive binding assay. A pre-incubated complex solution of WDR5Δ23 and the tracer in 120 μl assay buffer were added to dilutions of the test compound in 5 μl DMSO, giving final concentrations of WDR5Δ23 and the tracer of 4 nM and 0.6 nM, respectively. […] The plates were incubated with shaking at room temperature. The mP values were measured after five hours of incubation and Ki values were calculated using the equation described previously(31).

Where [1] appears, read: read-out: Binding Affinity to WDR5 (IC50 ± SD), Table 5 peptidomimetics.
Where [2] appears, read: 4 nM WDR5Δ23, 0.6 nM 10mer-Thr-FAM tracer, Ki calculated by equation of ref. 31.
The mark [3] stands for this setting: 4 nM WDR5Δ23, 0.6 nM 10mer-Thr-FAM tracer, read-out: IC50 ± SD.

As a reminder, the IC50 is the concentration that gives 50% inhibition. `CCC(CC)(NC(=O)C(C)C)C(=O)N[C@@H](CCCNC(=N)N)C(=O)NC(C(C)C)C(C)C` [Compound 11J]: the IC50 under setting [1] was below 10 µM.

As to `CC[C@H](NC(=O)[C@H](CCCNC(=N)N)NC(=O)C(CC)(CC)NC(=O)C(C)C)c1ccccc1` [Compound 11K], under setting [1], the 50% inhibitory concentration (IC50) was below 3 µM.

On to `CCC(CC)(NC(=O)C(C)C)C(=O)N[C@@H](CCCNC(=N)N)C(=O)NCCc1ccccc1` [Compound 11L] (Isobutyryl-[Deg]-Arg-NHPhenethyl), for which the IC50 under setting [1] was above 10 µM.

As for `CCC(CC)(NC(=O)C(C)C)C(=O)N[C@@H](CCCNC(=N)N)C(=O)NCCCc1ccccc1` [Compound 11M], the IC50 under setting [1] was above 1 µM.

For `CCC(CC)(NC(=O)C(C)C)C(=O)N[C@@H](CCCNC(=N)N)C(=O)NCCCCc1ccccc1` [Compound 11N], under setting [1], the 50% inhibitory concentration (IC50) was below 10 µM.

On to `C[C@H](N)C(=O)N[C@@H](CCCNC(=N)N)C(=O)N[C@@H](C)C(N)=O` [Compound H2N-3mer, H2N-ARA-NH2] (H-Ala-Arg-Ala-NH2), for which the “binding to WDR5 (in words)” value is recorded as “does not bind to WDR5 up to the concentrations tested”.

A word on the Ki: it is the dissociation constant of the complex between target and ligand, obtained from inhibition or displacement. `CC(C)C[C@H](NC(=O)[C@H](Cc1c[nH]cn1)NC(=O)[C@@H](NC(=O)[C@H](CCC(=O)O)NC(=O)[C@H](C)NC(=O)[C@H](CCCNC(=N)N)NC(=O)[C@H](C)N)C(C)C)C(=O)N[C@@H](CCCNC(=N)N)C(=O)N[C@@H](CCCCN)C(=O)N[C@@H](CO)C(N)=O` [Compound H2N-10mer]: the inhibitory constant (Ki) under setting [2] is 7.3 ± 0.7 µM. Further, the half-maximal inhibitory concentration (IC50) under setting [3] is 34 ± 3 µM.

`C[C@H](N)C(=O)N[C@@H](CCCNC(=N)N)C(=O)N[C@H](C(N)=O)[C@@H](C)O` [Compound H3-3mer, H2N-ART-NH2, reference compound] (H-Ala-Arg-Thr-NH2): the Ki under setting [2] is 27.3 ± 2.5 µM. Also, under setting [3], the IC50 amounted to 127 ± 12 µM.

Regarding `C[C@H](N)C(=O)N[C@@H](CCCNC(=N)N)C(=O)N[C@H](C(=O)N[C@@H](CCCCN)C(=O)N[C@@H](CCC(N)=O)C(=O)N[C@H](C(=O)N[C@@H](C)C(=O)N[C@@H](CCCNC(=N)N)C(=O)N[C@@H](CCCCN)C(=O)N[C@@H](CO)C(N)=O)[C@@H](C)O)[C@@H](C)O` [Compound H3-10mer, reference compound], for the setting “4 nM WDR5Δ23, 0.6 nM 10mer-Thr-FAM tracer, Ki calculated by equation of ref. 31, listed as wild-type H3 peptide”, the Ki was 15 µM. Besides, under setting [3], the IC50 was determined as 70 ± 6 µM.

With `C[C@H](N)C(=O)N[C@@H](CCCNC(=N)N)C(=O)N[C@H](C(=O)N[C@@H](CCCC[N+](C)(C)C)C(=O)N[C@@H](CCC(N)=O)C(=O)N[C@H](C(=O)N[C@@H](C)C(=O)N[C@@H](CCCNC(=N)N)C(=O)N[C@@H](CCCCN)C(=O)N[C@@H](CO)C(N)=O)[C@@H](C)O)[C@@H](C)O` [L3-10mer-K4Me3, H2N-ARTK(Me3)QTARKS-NH2, reference compound], the Ki under setting [2] is 15.6 ± 1.2 µM. The half-inhibitory concentration (IC50) under setting [3] came to 73 ± 6 µM.

With `CC(=O)N[C@@H](C)C(=O)N[C@@H](CCCNC(=N)N)C(=O)N(C)[C@@H](C)C(N)=O` [Δ1, Ac-AR-(N—Me)A-NH2], the “binding to WDR5 (in words)” value is listed as “complete loss of its binding to WDR5”.

Take `CC(=O)N[C@@H](C)C(=O)N[C@@H](CCCNC(=N)N)C(=O)N[C@@H](C)C(=O)N(C)C` [Δ2b, Ac-ARA-CONMe2] (Ac-Ala-Arg-Ala-NMe2): the “times less potent than Ac-3mer” value is 50. In addition, the Ki under setting [2] was 6.5 ± 1.2 µM. Also, the IC50 under setting [3] turned out to be 30 ± 5 µM.

Take `COC(=O)[C@H](C)NC(=O)[C@H](CCCNC(=N)N)NC(=O)[C@H](C)NC(C)=O` [Δ2c, Ac-ARA-COOCH3] (Ac-Ala-Arg-Ala-OMe): the “times less potent than Ac-3mer” value is 10. Moreover, the Ki under setting [2] was 1.6 ± 0.2 µM. In addition, the 50% inhibitory concentration (IC50) under setting [3] amounted to 7.3 ± 0.8 µM.

With Ac-ARAEV-NH2 [Ac-5mer, Ac-ARAEV-NH2], the Ki stood at 0.16 ± 0.03 µM. The 50% inhibitory concentration (IC50) (read-out: IC50 ± SD) was 0.75 ± 0.1 µM.

As for Ac-ARAEVH-NH2 [Ac-6mer, Ac-ARAEVH-NH2], the Ki came to 0.09 ± 0.02 µM. The IC50 (read-out: IC50 ± SD) is 0.4 ± 0.1 µM.

With “Ac-ARAEVHL-NH2 [Ac-7mer, Ac-ARAEVHL-NH2]”, the “fold decrease of binding affinity relative to Ac-10mer” value is listed as 10 and the Ki was 0.03 ± 0.01 µM. The IC50 (read-out: IC50 ± SD) was 0.16 ± 0.03 µM.

Consider Ac-RAEVHLRKS-NH2 [Ac-9mer], for which the “fold decrease of binding affinity relative to Ac-10mer” value is 1500.

For the molecule Ac-SARAEVHLRKS-NH2 [Ac-11mer], the Ki under setting [2] is 0.2 ± 0.03 µM. Further, the half-maximal inhibitory concentration (IC50) under setting [3] was 1.04 ± 0.14 µM.

Values taken from patent US9233086B2 (THE REGENTS OF THE UNIVERSITY OF MICHIGAN, priority 2010, dated 2016).
